Data published in patent US7632972B2, “Compounds and methods for treatment of cancer and modulation of programmed cell death for melanoma and other cancer cells” (The Board of Trustees of the University of Illionis, priority 2003, dated 2009).

Tests used:
U-937 cells [1] = assay: High-throughput cell death assay on library members (MTS/PMS); assay type: cell-based, human; conditions: library members at 100 μM, 24 hours
Protocol: A three-tiered system was devised to identify compounds that selectively induce apoptosis in cancer cells. First, all compounds were screened at 100 μM in a high-throughput manner for their ability to induce death in two cancer cell lines, HL-60 (leukemia) and U-937 (lymphoma).
Test compounds were transferred into the wells using a 96-pin transfer apparatus (V & P Scientific, San Diego Calif.) that transfers 0.2 μL of compound. The compounds were made up as 50 mM stock solutions in 100% EtOH, so one transfer gave a final concentration of 100 μM. Controls were performed in which only EtOH (containing no compound) was pin-transferred into wells containing cells. The cells were incubated with the compounds for 24 hours, and then cell death was quantitated.

in vitro = assay type: cell-based, human; conditions: human
[2] = test system: etoposide induced apoptosis; assay: Inhibition of etoposide induced apoptosis; assay type: cell-based
U-937 cells [3] = assay: Analysis of mitochondria depolarization by flow cytometry (JC-9 dye); assay type: cell-based, human
Protocol: Further experiments assessed whether the observed death from 12-D, 13-D, and 15-D was due to apoptosis or necrosis.
Analysis of Mitochondria Depolarization by Flow Cytometry: The depolarization of the mitochondrial membrane was measured by the fluorescence emitted by the JC-9 dye (Molecular Probes, Eugene Oreg.). 100 μM of 13-D or 10 μM etoposide in 1 μL of EtOH were added to cell culture flasks containing 50 mL of 10×10^6 U-937 cells/mL. […] 10 μg of the JC-9 dye was added to 1×10^6 cells in 1 mL and incubated at room temperature for 10 min. Cells were washed twice with PBS and resuspended in a final volume of 500 μL PBS. The fluorescence intensity of each cell was determined by flow cytometry at 525 nm (channel 1 green) and 675 nm (channel 4 red). 50,000 cells were analyzed in each experiment. The data was then analyzed using Summit Software (Cytomation, Fort Collins Colo.) and the number of cells within the upper left region, viable cells, was determined.
Apoptotic assays. To determine whether the observed death was due to apoptosis or necrosis, several apoptotic hallmarks were examined. Thus early stage (mitochondrial membrane depolarization), middle stage (caspase-3 like activation, PARP-1 cleavage) and late stage (chromatin condensation, phosphatidylserine exposure, membrane blebbing) biochemical events were monitored. The depolarization of mitochondrial membranes facilitates the release of pro-apoptotic proteins such as cytochrome c and AIF (apoptosis inducing factor) from the mitochondria into the cytosol. Several dyes, including JC-9, have been developed that provide a sensitive readout on this process. […] The release of pro-apoptotic stimuli from the mitochondria initiates a cascade of events that ultimately results in the activation of the “executioner” caspases, typically caspase-3 and caspase-7. The caspase-3-like activity of the cells can be monitored with peptidic substrates. […] PARP-1 cleavage. A final event in apoptosis is the exposure of phosphatidylserine on the outer leaflet of the cell membrane; this event allows for recognition of apoptotic cells by phagocytes, ultimately leading to the engulfment of the apoptotic cell and the recycling of the various cellular components.

SMILES	Induction of death in U-937 cells (percentages of cell death) (U-937 cells [1])	IC50 at 72 h (in vitro)	activity in assays exploring inhibition of etoposide induced apoptosis [2]	observed death due to apoptosis or necrosis (U-937 cells [3])
COc1cc(/C=C/C(=O)NC[C@@H](OC)c2ccc(O)cc2)ccc1O [Compound 9-D, 3-(4-Hydroxy-3-(S)-methoxy-phenyl)-N-[2-(4-hydroxy-phenyl)-2-methoxy-ethyl]-acrylamide]	20%	273 µM	Neither compound 1 nor any library members showed activity	
COc1cc(/C=C/C(=O)NC[C@@H](O)c2ccccc2)ccc1O (stereo in doubt) [Compound 12-D, 3-(4-Hydroxy-3-methoxy-phenyl)-N-(2-hydroxy-2-phenyl-ethyl)-acrylamide]	82%	61 µM		induced some apoptosis, some necrosis
COc1cc(/C=C/C(=O)NC[C@H](O)c2ccc(O)cc2)ccc1O [Compound 15-D, N-[2-(R)-Hydroxy-2-(4-hydroxy-phenyl)-ethyl]-3-(4-hydroxy-3-methoxy-phenyl)-acrylamide]	89%	109 µM		induced some apoptosis, some necrosis
